Data: article PMC11125181, “New Inhibitors of Bcr-Abl Based on 2,6,9-Trisubstituted Purine Scaffold Elicit Cytotoxicity in Chronic Myeloid Leukemia-Derived Cell Lines Sensitive and Resistant to TKIs” (Pharmaceutics, 2024)
Read-outs that look alike come from different tables or passages of the source.

Columns and labels:
KCL22 B10 (Y253H, 50%) = assay: Cytotoxicity assay (resazurin) on KCL22 subclone B10; type: cell-based; conditions: Homo sapiens, KCL-22, read-out: GI50 KCL22 B10 Y253H (50%), 72 h
Method: (§1) Human cell lines KCL22 and BV173 were obtained from the German Collection of Microorganisms and Cell Cultures, K562 and HEK-293T from the European Collection of Authenticated Cell Cultures. KBM5 cell line was kindly gifted by Vladimír Divoký. Development of KCL22 subclones B8 (T315I, 100%), F4 (E255K, 100%), and B10 (Y253H, 50%) was reported previously. All cell lines were cultivated in humidified incubator at 37 °C and in 5% CO2 according to the provider’s instructions in appropriate media supplemented with 10% fetal bovine serum, penicillin (100 IU/mL), streptomycin (100 µg/mL), and glutamine (4 mM).
(§2) Cytotoxicity was determined using resazurin, an indicator dye to measure oxidation-reduction reactions occurring in the mitochondria of live cells. The cells were seeded into 96-well plates and treated with compounds for 72 h (six different doses of each, in triplicate). After treatment, resazurin (Merck, Darmstadt, Germany) solution was added for 4 h, and the fluorescence of formed resorufin corresponding to live cell quantity was measured at 544 nm/590 nm (excitation/emission) using a Fluoroskan Ascent microplate reader (Labsystems, Vantaa, Finland).

KCL22 B8 (T315I, 100%) = assay: Cytotoxicity assay (resazurin) on KCL22 subclone B8; type: cell-based; conditions: Homo sapiens, KCL-22, read-out: GI50 KCL22 B8 T315I (100%), 72 h
Method: as §1, §2

HEK-293T = assay: Cytotoxicity assay (resazurin) on non-neoplastic HEK-293T; type: cell-based; conditions: Homo sapiens, 72 h, non-neoplastic cells
Method: as §1, §2

recombinant Abl1 kinase = molecular target: T1, recombinant Abl1 kinase (Homo sapiens, UniProt P00519); assay: Recombinant Abl1 kinase inhibition assay ([γ-33P]ATP, peptide substrate); type: biochemical
T1 construct: made in house
T1 sequence (P00519 whole entry): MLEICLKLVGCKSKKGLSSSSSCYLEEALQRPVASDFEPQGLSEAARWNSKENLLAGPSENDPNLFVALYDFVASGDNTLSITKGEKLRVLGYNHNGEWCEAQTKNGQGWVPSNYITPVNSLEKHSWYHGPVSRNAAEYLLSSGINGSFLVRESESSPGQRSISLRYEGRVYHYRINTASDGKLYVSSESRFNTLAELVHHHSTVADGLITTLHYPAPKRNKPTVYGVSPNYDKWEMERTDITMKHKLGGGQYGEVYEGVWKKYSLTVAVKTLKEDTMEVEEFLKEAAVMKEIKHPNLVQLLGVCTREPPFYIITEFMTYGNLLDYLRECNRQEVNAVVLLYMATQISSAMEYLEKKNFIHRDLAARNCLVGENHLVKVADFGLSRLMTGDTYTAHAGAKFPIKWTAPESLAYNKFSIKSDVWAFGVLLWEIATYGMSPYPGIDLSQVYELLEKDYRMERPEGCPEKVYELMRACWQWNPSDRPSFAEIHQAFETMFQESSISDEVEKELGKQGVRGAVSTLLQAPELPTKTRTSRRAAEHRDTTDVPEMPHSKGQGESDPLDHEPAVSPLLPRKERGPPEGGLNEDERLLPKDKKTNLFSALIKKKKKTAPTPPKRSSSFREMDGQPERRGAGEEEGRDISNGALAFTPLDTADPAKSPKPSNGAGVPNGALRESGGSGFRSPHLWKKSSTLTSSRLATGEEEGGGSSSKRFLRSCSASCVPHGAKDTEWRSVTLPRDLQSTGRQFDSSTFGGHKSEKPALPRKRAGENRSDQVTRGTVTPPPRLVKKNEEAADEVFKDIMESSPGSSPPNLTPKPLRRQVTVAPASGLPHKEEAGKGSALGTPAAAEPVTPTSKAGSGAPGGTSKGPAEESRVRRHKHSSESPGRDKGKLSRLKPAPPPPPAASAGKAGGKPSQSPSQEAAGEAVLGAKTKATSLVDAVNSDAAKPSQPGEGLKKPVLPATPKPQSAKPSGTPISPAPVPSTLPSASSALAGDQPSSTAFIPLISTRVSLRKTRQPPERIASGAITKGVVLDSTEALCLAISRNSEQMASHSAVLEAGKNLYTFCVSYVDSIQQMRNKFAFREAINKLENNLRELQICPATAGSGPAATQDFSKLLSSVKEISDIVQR
Method: The reactions were stopped by adding 5 µL of 3% aq. H3PO4. […] H3PO4, and air-dried.

BV173 = assay: Cytotoxicity assay (resazurin) on BV173; type: cell-based; conditions: Homo sapiens, BV-173, 72 h
Method: as §1, §2

K562 = assay: Cytotoxicity assay (resazurin) on K562; type: cell-based; conditions: Homo sapiens, 72 h
Method: as §1, §2

KCL22 F4 (E255K, 100%) = assay: Cytotoxicity assay (resazurin) on KCL22 subclone F4; type: cell-based; conditions: Homo sapiens, KCL-22, read-out: GI50 KCL22 F4 E255K (100%), 72 h
Method: as §1, §2

KBM5 = assay: Cytotoxicity assay (resazurin) on KBM5; type: cell-based; conditions: Homo sapiens, read-out: GI50 KBM5
[1] = system: KCL22 cells containing Bcr-Abl^WT; assay: Cytotoxicity assay (resazurin) on KCL22 WT; type: cell-based, human; conditions: Homo sapiens, KCL-22, 72 h, read-out: GI50 KCL22 WT
[2] = as listed in Table S1, Bcr-Abl WT, read-out: IC50 (Table S1)
[3] = from the IC50 of Table S1, read-out: pIC50 (Table S1) (converted)
[4] = recombinant Abl1, 1 µM ATP, at least three independent experiments, read-out: IC50 Abl

| Structure (SMILES) | IC50 (recombinant Abl1 kinase; [2]) | IC50 (recombinant Abl1 kinase; [3]) | IC50 (recombinant Abl1 kinase; [4]) | melting point | GI50 (KCL22 B10 (Y253H, 50%)) | GI50 (KCL22 B8 (T315I, 100%)) | GI50 (HEK-293T) | GI50 (BV173) | GI50 (K562) | GI50 (KCL22 F4 (E255K, 100%)) | GI50 (KBM5; KBM5, 72 h, resazurin assay) | GI50 [1] | GI50 (KBM5; KBM5, 72 h) |
| --- | --- | --- | --- | --- | --- | --- | --- | --- | --- | --- | --- | --- | --- |
| CN1CCN(c2ccc(Nc3nc(NC4CCCCC4)c4ncn(CC5CC5)c4n3)cc2)CC1 [Compound 13b, N^6-cyclohexyl-9-(cyclopropylmethyl)-N^2-(4-(4-methylpiperazin-1-yl)phenyl)-9H-purine-2,6-diamine] | 11.1 µM | 11 µM | 11.1 ± 3.31 µM |  | > 20 µM | > 20 µM | > 20 µM | > 20 µM | 4.8 ± 0.3 µM | > 20 µM | > 20 µM | > 20 µM |  |
| CC(C)CCn1cnc2c(Nc3ccc(F)c(F)c3)nc(Nc3ccc(N4CCN(CCO)CC4)cc3)nc21 [Compound 11f, 2-(4-(4-((6-((3,4-Difluorophenyl)amino)-9-isopentyl-9H-purin-2-yl)amino)phenyl)piperazin-1-yl)ethan-1-ol] |  | 1.76 µM | 1.76 ± 0.74 µM |  | 7 ± 0.5 µM | 7.2 ± 1 µM | 5.2 ± 0.7 µM | 4.5 ± 0.1 µM | 5.9 ± 0.6 µM | 5.7 ± 0.1 µM | 5.2 ± 0.1 µM | 6.5 ± 0.2 µM |  |
| CN1CCN(c2ccc(Nc3nc(Nc4cccc(F)c4)c4ncn(CC5CC5)c4n3)cc2)CC1 [II, reference compound] |  |  |  |  | 8.8 ± 0.4 µM | > 20 µM | 5.6 ± 0.6 µM | 5.3 ± 0.2 µM | 0.8 ± 0.1 µM | > 20 µM |  |  | 5.1 ± 0.5 µM |
| CN1CCN(c2ccc(Nc3nc(Nc4ccccc4)c4ncn(CC5CC5)c4n3)cc2)CC1 [Compound I, reference compound] |  |  |  |  | 5.2 ± 0.2 µM | 17.3 ± 2 µM | 7.5 ± 1.4 µM | 2.2 ± 0.2 µM | 1.5 ± 0.1 µM | 5.7 ± 0.3 µM |  |  | 2.7 ± 0.1 µM |
| CN1CCN(c2ccc(Nc3nc(Nc4ccc(F)c(F)c4)c4ncn(CC5CC5)c4n3)cc2)CC1 [III, reference compound] |  |  |  |  | 3.4 ± 0.4 µM | > 20 µM | 5.3 ± 0.3 µM | 1.4 ± 0.1 µM | 1.2 ± 0.4 µM | > 20 µM |  |  | 1.1 ± 0.8 µM |
| Cc1ccc(NC(=O)c2ccc(CN3CCN(C)CC3)cc2)cc1Nc1nccc(-c2cccnc2)n1 [Imatinib, reference compound] |  |  |  |  | > 20 µM | > 20 µM | > 10 µM | 0.199 ± 0.061 µM | 0.231 ± 0.001 µM | 9.6 ± 0.5 µM |  |  |  |

Now from value to compound, other results behind:

| IC50 (recombinant Abl1 kinase; [2]) | IC50 (recombinant Abl1 kinase; [3]) | IC50 (recombinant Abl1 kinase; [4]) | melting point | Structure (SMILES) | GI50 (KCL22 B10 (Y253H, 50%)) | GI50 (KCL22 B8 (T315I, 100%)) | GI50 (HEK-293T) | GI50 (BV173) | GI50 (K562) | GI50 (KCL22 F4 (E255K, 100%)) | GI50 (KBM5; KBM5, 72 h, resazurin assay) | GI50 [1] | GI50 (KBM5; KBM5, 72 h) |
| --- | --- | --- | --- | --- | --- | --- | --- | --- | --- | --- | --- | --- | --- |
| 0.83 µM | 0.83 µM | 0.834 ± 0.447 µM |  | CCCCCCn1cnc2c(Nc3ccccc3)nc(Nc3ccc(N4CCN(CCO)CC4)cc3)nc21 [Compound 11g, 2-(4-(4-((9-Hexyl-6-(phenylamino)-9H-purin-2-yl)amino)phenyl)piperazin-1-yl)ethan-1-ol] | 7.7 ± 0.2 µM | 10.4 ± 1.8 µM | 8.6 ± 3.2 µM | 5.2 ± 0.2 µM | 4.5 ± 1.4 µM | 8.5 ± 0.9 µM | 5.4 ± 0.2 µM | 15.1 ± 2.2 µM |  |
|  | 0.22 µM | 0.225 ± 0.042 µM |  | CN1CCN(Cc2ccc(Nc3nc(Nc4ccc(F)c(F)c4)c4ncn(CC5CC5)c4n3)cc2)CC1 [Compound 7b, 9-(Cyclopropylmethyl)-N^6-(3,4-difluorophenyl)-N^2-(4-((4-methylpiperazin-1-yl)methyl)phenyl)-9H-purine-2,6-diamine] | 6.6 ± 0.2 µM | 11.4 ± 3.2 µM | 6.3 ± 1.2 µM | 1.9 ± 0.1 µM | 1.4 ± 0.2 µM | 10.1 ± 1.2 µM | 4.2 ± 0.2 µM | 8.5 ± 1.4 µM |  |
| 0.67 µM | 0.67 µM | 0.674 ± 0.069 µM |  | CCCCCCn1cnc2c(Nc3cccc(F)c3)nc(Nc3ccc(N4CCN(CCO)CC4)cc3)nc21 [Compound 11h, 2-(4-(4-((6-((3-Fluorophenyl)amino)-9-hexyl-9H-purin-2-yl)amino)phenyl)piperazin-1-yl)ethan-1-ol] | 5.9 ± 0.7 µM | 9.5 ± 1.5 µM | 6 ± 1 µM | 5.2 ± 0.5 µM | 4.8 ± 0.4 µM | 8.1 ± 1.2 µM | 5.8 ± 0.2 µM | 9.6 ± 1 µM |  |
|  | 1.24 µM | 1.24 ± 0.22 µM | 88.6 to 89.2 °C | CC(C)CCn1cnc2c(Nc3ccccc3)nc(Nc3ccc(N4CCN(CCO)CC4)cc3)nc21 [Compound 11d, 2-(4-(4-((9-Isopentyl-6-(phenylamino)-9H-purin-2-yl)amino)phenyl)piperazin-1-yl)ethan-1-ol] | 7.8 ± 0.5 µM | 7.8 ± 1.3 µM | 5.7 ± 1.2 µM | 3.6 ± 0.7 µM | 6.3 ± 0.7 µM | 6.6 ± 0.6 µM | 5.6 ± 0.4 µM | 8.4 ± 0.3 µM |  |
| 0.84 µM | 0.839 µM | 0.845 ± 0.066 µM | 152 to 154 °C | CN1CCN(c2ccc(Nc3nc(NCc4ccccc4)c4ncn(CC5CC5)c4n3)cc2)CC1 [Compound 13c, N^6-benzyl-9-(cyclopropylmethyl)-N^2-(4-(4-methylpiperazin-1-yl)phenyl)-9H-purine-2,6-diamine] | > 20 µM | > 20 µM | 16.7 ± 1.1 µM | 11.9 ± 1.4 µM | 5.7 ± 0.6 µM | > 20 µM | > 20 µM | > 20 µM |  |
|  | 0.019 µM | 0.02 ± 0.001 µM |  | OCCN1CCN(c2ccc(Nc3nc(Nc4ccc(F)c(F)c4)c4ncn(CC5CC5)c4n3)cc2)CC1 [Compound 11c, 2-(4-(4-((9-(Cyclopropylmethyl)-6-((3,4-difluorophenyl)amino)-9H-purin-2-yl)amino)phenyl)piperazin-1-yl)ethan-1-ol] | 4.1 ± 0.2 µM | 6.4 ± 0.4 µM | 5 ± 0.9 µM | 1.7 ± 0.1 µM | 0.9 ± 0.2 µM | 4.1 ± 0.2 µM | 2.1 ± 0.3 µM | 2.9 µM |  |
|  | 0.037 µM | 0.037 ± 0.012 µM |  | OCCN1CCN(c2ccc(Nc3nc(Nc4ccccc4)c4ncn(CC5CC5)c4n3)cc2)CC1 [Compound 11a, 2-(4-(4-((9-(Cyclopropylmethyl)-6-(phenylamino)-9H-purin-2-yl)amino)phenyl)piperazin-1-yl)ethan-1-ol] | 6.3 ± 0.4 µM | > 20 µM | 9.5 ± 0.7 µM | 3 ± 0.6 µM | 1.2 ± 0.3 µM | 12.7 ± 0.1 µM | 3 ± 0.1 µM | 5.7 ± 0.8 µM |  |
|  | 0.18 µM | 0.18 ± 0.068 µM |  | CN1CCN(Cc2ccc(Nc3nc(Nc4cccc(F)c4)c4ncn(CC5CC5)c4n3)cc2)CC1 [Compound 7a, 9-(Cyclopropylmethyl)-N^6-(3-fluorophenyl)-N^2-(4-((4-methylpiperazin-1-yl)methyl)phenyl)-9H-purine-2,6-diamine] | 7.4 ± 0.6 µM | 13.8 ± 2 µM | 6.3 ± 0.7 µM | 3.3 ± 1.6 µM | 1.5 ± 0.1 µM | 11.1 ± 0.5 µM | 4.4 ± 0.8 µM | 8.1 ± 0.5 µM |  |
